Measured values taken from article PMC8362065, “Easily Available, Amphiphilic Diiron Cyclopentadienyl Complexes Exhibit in Vitro Anticancer Activity in 2D and 3D Human Cancer Cells through Redox Modulation Triggered by CO Release” (Chemistry (Weinheim an Der Bergstrasse, Germany), 2021).

How the values were obtained:
[1] = Solubility in D2O by 1H NMR (Me2SO2 internal standard); type: physicochemical; settings: 21 °C
Method: Solubility in water. A suspension of the selected Fe compound (3–5 mg) in a D2O solution (0.7 mL) containing Me2SO2 as internal standard^52 (3.36 ⋅ 10^−3 M) was vigorously stirred at 21 °C for 10 h. The resulting saturated solution was filtered over celite, transferred into an NMR tube and analysed by ^1H NMR spectroscopy (delay time=3 s; number of scans=20). For the most soluble compounds (S≥0.05 M), a saturated solution was prepared in a smaller volume of D2O/Me2SO2 (0.2–0.3 mL), then filtered and diluted with pure D2O. The concentration (solubility) was calculated by the relative integral with respect to Me2SO2 (δ/ppm=3.14 (s, 6H)).

[2] = test system: untransformed HEK293 cells; assay: Cellular uptake, iron by GF-AAS; type: cell-based, human; settings: 50 μM, 24 h, GF-AAS (μg Fe per 10^6 cells, Figure 4A)
Method: (§1) In order to correlate the cytotoxic potential to the ability of the newly developed complexes to enter cells, we performed uptake experiments. […] Thus, cells were treated for 24 h with equimolar concentrations (50 μM) of the tested compounds. The cellular iron levels were quantified by means of GF‐AAS analysis, and the results, expressed as μg Fe per 10^6 cells, are shown in Figure 4A. […]
(§2) Figure 4 Intracellular detection of iron and carbon monoxide. A) Cellular uptake in PSN‐1 and HEK293 cells; cells were incubated with 50 μM of complexes for 24 h, and the cellular iron content was detected by GFAAS analysis. B) Intracellular CO levels were determined by using a fluorescent probe (BioTracker Carbon Monoxide Probe 1 Live Cell Dye®, Merck, Germany) after 30 min of treatment of PSN‐1 or HEK293 cells with 20 μM [2C]CF3SO3 and [2D]CF3SO3, or 20 μM CORM‐401 as positive control. ** P<0.01, * P<0.05.
(§3) Cellular uptake. […] Cell monolayers were washed twice with cold PBS, harvested and counted. […] After cooling, each mineralized sample was analysed for iron using a Varian AA Duo graphite furnace atomic absorption spectrometer (Varian) at the wavelength of 248.3 nm. […]

[3] = test system: human pancreatic PSN‐1 cancer cells; assay: Cellular uptake, iron by GF-AAS; type: cell-based; settings: PSN‐1 cells, 50 μM, 24 h, GF-AAS (μg Fe per 10^6 cells, Figure 4A)
Method: as §1, §2, §3

| Substance | Solubility [1] | Cellular iron accumulation (uptake) [2] | Cellular iron accumulation (uptake) [3] |
| --- | --- | --- | --- |
| [Fe2Cp2(CO)2(μ‐CO){μ‐CNEt(2‐naphthyl)}]BF4 [[4G]BF4] | not soluble ^[a] | – | – |
| [Fe2Cp2(CO)2(μ‐CO){μ‐CNMe(4‐C6H4OMe)}]CF3SO3 [[2D]CF3SO3] | – | major iron accumulation in untransformed cells with respect to pancreatic cancer cells | able to induce cellular iron accumulation |
